Data: US20230107195A1, “TREATMENT OF CANCER WITH SMG1-INHIBITORS” (Celgene Corporation, priority 2017, published 2023)
“Also recorded” adds a separate entry of the source.

Key:
[1] = target: T1, SMG1 (Homo sapiens, UniProt Q96Q15); test: Western blot for marker of SMG1 inhibition (pATM/ATR substrate band colocalizing with UPF1) in HCT-116 cells; type: cell-based; settings: parental and DNAPK−/− HCT116 cells
T1 construct: endogenous in cells; host or cells: HCT-116 parental and HCT-116 DNA-PK-/- cells
T1 sequence (Q96Q15 whole entry): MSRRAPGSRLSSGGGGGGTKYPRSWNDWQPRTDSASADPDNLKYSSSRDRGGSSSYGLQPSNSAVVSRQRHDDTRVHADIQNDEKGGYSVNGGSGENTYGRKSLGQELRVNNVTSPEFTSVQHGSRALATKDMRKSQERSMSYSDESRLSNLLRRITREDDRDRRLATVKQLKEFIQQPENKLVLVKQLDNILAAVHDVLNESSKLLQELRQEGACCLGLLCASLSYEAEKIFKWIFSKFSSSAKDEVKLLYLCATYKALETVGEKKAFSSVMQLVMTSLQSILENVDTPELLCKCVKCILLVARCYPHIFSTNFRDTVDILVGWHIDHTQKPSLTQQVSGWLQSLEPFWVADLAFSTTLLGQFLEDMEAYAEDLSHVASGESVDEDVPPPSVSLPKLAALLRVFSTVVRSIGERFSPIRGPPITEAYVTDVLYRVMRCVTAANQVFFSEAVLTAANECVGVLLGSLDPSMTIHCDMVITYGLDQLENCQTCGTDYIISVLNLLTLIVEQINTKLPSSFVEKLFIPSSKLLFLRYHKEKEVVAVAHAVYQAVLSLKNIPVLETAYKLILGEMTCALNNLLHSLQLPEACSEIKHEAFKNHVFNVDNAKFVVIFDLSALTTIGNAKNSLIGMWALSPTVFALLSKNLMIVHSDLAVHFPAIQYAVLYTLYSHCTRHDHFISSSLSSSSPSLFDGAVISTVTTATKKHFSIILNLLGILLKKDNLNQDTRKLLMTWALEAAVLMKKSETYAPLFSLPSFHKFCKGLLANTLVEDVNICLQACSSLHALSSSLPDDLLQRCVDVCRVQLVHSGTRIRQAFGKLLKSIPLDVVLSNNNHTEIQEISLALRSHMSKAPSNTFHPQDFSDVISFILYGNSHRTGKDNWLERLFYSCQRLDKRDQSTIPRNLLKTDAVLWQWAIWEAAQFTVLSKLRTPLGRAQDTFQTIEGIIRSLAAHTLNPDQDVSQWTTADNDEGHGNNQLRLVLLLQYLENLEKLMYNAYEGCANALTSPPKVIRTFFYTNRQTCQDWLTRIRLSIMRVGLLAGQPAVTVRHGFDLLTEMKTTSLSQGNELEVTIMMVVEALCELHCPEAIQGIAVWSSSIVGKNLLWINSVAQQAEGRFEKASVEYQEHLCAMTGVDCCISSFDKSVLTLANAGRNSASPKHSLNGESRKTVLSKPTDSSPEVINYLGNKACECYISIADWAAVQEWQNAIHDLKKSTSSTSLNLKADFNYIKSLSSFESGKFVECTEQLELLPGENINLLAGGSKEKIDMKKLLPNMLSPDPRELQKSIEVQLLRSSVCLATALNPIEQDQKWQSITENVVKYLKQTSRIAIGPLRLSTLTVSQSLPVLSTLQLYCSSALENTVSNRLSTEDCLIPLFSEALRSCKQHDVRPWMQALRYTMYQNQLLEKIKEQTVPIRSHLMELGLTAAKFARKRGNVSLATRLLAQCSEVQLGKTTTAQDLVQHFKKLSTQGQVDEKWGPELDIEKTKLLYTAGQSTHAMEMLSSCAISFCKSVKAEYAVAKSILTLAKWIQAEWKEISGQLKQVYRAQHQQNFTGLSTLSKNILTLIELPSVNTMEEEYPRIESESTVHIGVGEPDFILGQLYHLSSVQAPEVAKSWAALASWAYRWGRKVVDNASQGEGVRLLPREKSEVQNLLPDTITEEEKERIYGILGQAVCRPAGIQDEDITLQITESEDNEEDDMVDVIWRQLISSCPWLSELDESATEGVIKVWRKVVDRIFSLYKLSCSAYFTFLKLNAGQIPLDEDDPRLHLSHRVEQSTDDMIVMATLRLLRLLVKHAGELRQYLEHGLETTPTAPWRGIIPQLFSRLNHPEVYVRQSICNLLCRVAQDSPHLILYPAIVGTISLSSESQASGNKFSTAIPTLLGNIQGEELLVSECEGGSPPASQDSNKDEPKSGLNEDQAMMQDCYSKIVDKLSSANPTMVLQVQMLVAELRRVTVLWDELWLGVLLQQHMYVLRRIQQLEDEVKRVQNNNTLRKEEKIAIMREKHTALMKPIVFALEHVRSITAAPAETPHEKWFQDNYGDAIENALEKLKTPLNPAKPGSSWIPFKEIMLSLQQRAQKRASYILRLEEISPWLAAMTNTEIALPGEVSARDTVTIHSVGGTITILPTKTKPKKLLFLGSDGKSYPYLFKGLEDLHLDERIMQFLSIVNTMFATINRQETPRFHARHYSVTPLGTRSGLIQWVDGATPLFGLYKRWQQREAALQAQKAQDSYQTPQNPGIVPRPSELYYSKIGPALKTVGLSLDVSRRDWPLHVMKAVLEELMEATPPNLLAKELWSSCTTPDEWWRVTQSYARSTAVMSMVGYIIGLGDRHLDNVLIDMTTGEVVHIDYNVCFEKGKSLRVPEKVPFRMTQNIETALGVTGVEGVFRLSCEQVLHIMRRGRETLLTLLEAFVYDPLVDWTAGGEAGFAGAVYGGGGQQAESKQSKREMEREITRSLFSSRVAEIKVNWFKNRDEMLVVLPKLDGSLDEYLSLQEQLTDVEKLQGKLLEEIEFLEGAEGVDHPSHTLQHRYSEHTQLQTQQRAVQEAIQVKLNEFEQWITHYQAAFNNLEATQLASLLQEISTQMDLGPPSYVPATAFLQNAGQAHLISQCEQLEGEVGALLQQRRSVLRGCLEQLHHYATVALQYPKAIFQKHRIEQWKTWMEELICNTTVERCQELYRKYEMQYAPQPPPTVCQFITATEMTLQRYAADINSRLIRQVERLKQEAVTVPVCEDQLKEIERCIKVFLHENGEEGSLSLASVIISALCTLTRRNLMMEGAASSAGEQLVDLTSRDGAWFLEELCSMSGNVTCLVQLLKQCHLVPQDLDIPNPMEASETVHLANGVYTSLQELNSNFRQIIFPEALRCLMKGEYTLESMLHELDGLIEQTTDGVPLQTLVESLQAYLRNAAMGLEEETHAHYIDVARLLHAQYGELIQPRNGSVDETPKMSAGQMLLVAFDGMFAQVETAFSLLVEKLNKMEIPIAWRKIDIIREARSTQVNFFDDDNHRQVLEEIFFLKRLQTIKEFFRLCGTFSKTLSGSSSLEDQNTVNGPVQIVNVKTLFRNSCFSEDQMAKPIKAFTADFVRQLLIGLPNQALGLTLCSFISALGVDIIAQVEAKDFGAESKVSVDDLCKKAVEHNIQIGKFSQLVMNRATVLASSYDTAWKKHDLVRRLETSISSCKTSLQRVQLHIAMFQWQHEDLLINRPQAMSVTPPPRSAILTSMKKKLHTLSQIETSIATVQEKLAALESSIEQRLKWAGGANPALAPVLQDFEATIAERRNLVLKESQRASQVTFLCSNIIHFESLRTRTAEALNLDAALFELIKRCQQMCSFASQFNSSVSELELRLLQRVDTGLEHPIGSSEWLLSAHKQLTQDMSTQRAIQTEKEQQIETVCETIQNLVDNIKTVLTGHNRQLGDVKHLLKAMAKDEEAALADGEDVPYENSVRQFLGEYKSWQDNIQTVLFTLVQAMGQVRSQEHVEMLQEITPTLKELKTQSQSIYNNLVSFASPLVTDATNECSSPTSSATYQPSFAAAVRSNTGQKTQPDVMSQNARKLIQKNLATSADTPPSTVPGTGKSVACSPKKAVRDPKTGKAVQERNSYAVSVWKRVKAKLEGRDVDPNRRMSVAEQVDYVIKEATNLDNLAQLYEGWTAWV
From the text: SDS-PAGE and Western blot: Equal amounts of protein were subjected to SDS-PAGE using 3-8% tris-acetate protein gels (Thermo Fisher Scientific #A03755BOX, for DNA-PK, SMG1 and vinculin detection) and 4-12% bis-tris protein gels (Thermo Fisher Scientific #NP0323BOX, for phospho-(Ser/Thr) ATM/ATR substrate, UPF1, GAPDH, S6, phospho-4E-BP1, and cofilin detection). Proteins were electrophoretically transferred to 0.2 μm nitrocellulose membranes (Thermo Fisher Scientific #LC2000) and blocked for 1 hour with Odyssey Blocking Buffer TBS (LI-COR #927-50000). Membranes from 3-8% tris-acetate gels were incubated overnight with antibodies against total DNA-PK (Cell Signaling #12311), phospho DNA-PK (Ser2056) (Abcam #ab124918), total SMG1 (Cell Signaling #9149) and vinculin (Sigma #V9264). Membranes from 4-12% bis-tris gels were incubated overnight with antibodies against phospho-(Ser/Thr) ATM/ATR substrate (Cell Signaling #2851), total UPF1 (Sigma #SAB 1402893), GAPDH (Santa Cruz #47724), total S6 Ribosomal Protein (Santa Cruz #74459), phosphoS6 Ribosomal Protein (Ser240/244) (Cell Signaling #5364), phospho-4E-BP1 (Thr70) (Cell Signaling #9455), and cofilin (Santa Cruz #376476). Membranes were washed with TBST and incubated with IRDye 800CW Goat anti-Rabbit IgG (LI-COR #926-32211) and IRDye 680LT Goat anti-Mouse IgG (LI-COR #926-68020) secondary antibodies for 1 hour. […]

[2] = target: T2, TORK (Homo sapiens, UniProt P42345); test: Western blot for markers of TORK inhibition (pS6 and p4EBP1) in HCT-116 cells; type: cell-based; settings: parental and DNAPK−/− HCT116 cells
[3] = target: T1, SMG1; test: ActivX KiNativ assay (probe binding, LC-MS); settings: 0.3 μM and 1.0 μM dose, 1 h, four different cell lines
Method: (§1) After 1 h, the medium was aspirated; cells were rinsed once with ice cold PBS, scraped off and transferred to a 15 ml conical tube. Cells were pelleted by centrifugation, the supernatant was discarded and pellets were frozen on dry ice and stored at −80° C. KiNativ assay: Briefly, lysates were prepared from cell pellets and incubated with ADP and ATP probes. After a tryptic digest, the probe labeled peptides were characterized and quantified using targeted Liquid Chromatography-Mass Spectrometry (LC-MS). Percent inhibition is defined as the reduction of probe binding in the presence of compound, indicating binding of the compound to the kinase.

[4] = target: T3, DNA-PK (Homo sapiens, UniProt P78527); test: ActivX KiNativ assay (probe binding, LC-MS); settings: 0.3 μM and 1.0 μM dose, 1 h, four different cell lines
T3 construct: lysates were prepared from cell pellets and incubated with ADP and ATP probes; endogenous in cells
Method: as §1

[5] = target: T2, TORK; test: ActivX KiNativ assay (probe binding, LC-MS); set-up: lysates were prepared from cell pellets and incubated with ADP and ATP probes; endogenous in cells; settings: 0.3 μM and 1.0 μM dose, 1 h, four different cell lines

binding to SMG1 (% inhibition of probe binding) [3]: only binds TORK
binding to DNA-PK (% inhibition of probe binding) [4]: only binds TORK
binding to TORK (% inhibition of probe binding) [5]: only binds TORK
SMILES: CO[C@H]1CC[C@H](N2C(=O)CNc3ncc(-c4ccc(C(C)(C)O)nc4)nc32)CC1 [Compound 2, 7-(6-(2-hydroxypropan-2-yl)pyridin-3-yl)-1-((trans)-4-methoxycyclohexyl)-3,4-dihydropyrazino[2,3-b]pyrazin-2(1H)-one]
marker of SMG1 inhibition (pATM/ATR substrate, pUPF1) [1]: binds to TORK (pS6 and p4EBP1) only; also recorded: not by Compound 2
markers of TORK inhibition (pS6 and p4EBP1) [2]: binds to TORK (pS6 and p4EBP1) only; also recorded: reduced
